Assay in all cases: Tumor cell proliferation inhibitory activity test in vitro (MTT)
Test [1] has as its system colon carcinoma cell HCT116. In kind it is cell-based, human. To be noted: read-out: IC50 of compounds for tumor cells, Activity, HCT116. The source says:
(§1) Human non-small cell lung cancer cell line NCI-H460, human small cell lung cancer cell line NCI-H446, human hepatocellular carcinoma cell strain HepG2, human colon carcinoma cell strain HCT116, human prostate cancer PC-3, human melanoma A375, colon carcinoma cell HCT-8, breast cancer cell MCF-7, ovarian cancer cell A2780s, drug-resistant ovarian cancer cell A2780/T, drug-resistant colon cancer cell HCT-8/T and doxorubicin-resistant breast cancer cell MCF-7/ADR are obtained from American Type Culture Collection (ATCC) and are cultured and preserved by the cell bank of State Key Laboratory of Biotherapy of Sichuan University. Above tumor cells are routinely cultured in DMEM culture medium containing 10% fetal bovine serum, 100 U·mL-1 penicillin and 100 mg·L−1 streptomycin, and in an incubator at 37° C. and with saturated humidity and 5% CO2 concentration.
(§2) Fill diluted cell suspension in the 96-well plate with 1000-10000 cells per well and incubate it in CO2 incubator overnight.
(§3) Replace with new medium containing various concentrations of compounds to be tested for the test group and replace with fresh medium with equal volume for the control group, each group is arranged with 5 parallel wells and incubated in an incubator at 37° C. and with 5% CO2 concentration.
(§4) Discard the supernatant after 72 hours, add 200 μL freshly prepared serum-free medium containing 0.2 mg/mL MTT into each well, continue to incubate at 37° C. for 1-4 hours, then stop incubation, carefully remove the culture supernatant in the wells and add 200 uL DMSO (dimethyl sulfoxide), oscillate with a miniature ultrasonic oscillator for 15-20 minutes to make the crystal fully dissolved and mixed. Determine OD values using a microplate reader at 570 nm with a reference wavelength of 450 nm.
(§5) Draw curves based on the growth inhibition rate for tumor cells of the same sample with different concentrations to get dose-response curve, so as to calculate IC50. Repeat each test for 3 times, measure IC50 (μM) or nanomolor concentration (nM) of compounds in different tumor cells.

In test [2] the test system is hepatocellular carcinoma cell HEPG2. The class given is cell-based, human. To be noted: read-out: IC50 of compounds for tumor cells, Activity, HEPG2.
Source text: as §1, §2, §3, §4, §5

A further test concerns melanoma A375. The class given is cell-based, human. The settings on record: read-out: IC50 of compounds for tumor cells, Activity, A375.
Source text: as §1, §2, §3, §4, §5

The test system of test [3] is non-small cell lung cancer cell line NCI-H460. The class given is cell-based, human. To be noted: read-out: IC50 of compounds for tumor cells, Activity, H460.
Source text: as §1, §2, §3, §4, §5

The next test deals with prostate cancer PC-3. In kind it is cell-based, human. To be noted: 72 hours, read-out: IC50 of compounds for tumor cells, Activity, PC-3.
Source text: as §1, §2, §3, §4, §5

The next test deals with breast cancer cell MCF-7. In kind it is cell-based. The settings on record: read-out: IC50 of compounds for tumor cells, Activity, MCF-7.
Source text: as §1, §2, §3, §4, §5

The mark [4] stands for this setting: Homo sapiens, HCT-116, 72 hours.
The mark [5] stands for this setting: Homo sapiens, NCI-H460, 72 hours.

Like-named read-outs stand apart in the source and are kept apart here.

This is an account of results in patent publication US10544134B2, “4-substituted coumarin derivatives and preparation methods and uses thereof” (SI CHUAN UNIVERSITY, priority 2015, dated 2020).

The IC50 is the concentration that gives 50% inhibition.

“4-(N-methyl-N-(4-methoxy-3-(furan-2-yl-methoxycarbonyl)-benzene)-amino) Coumarin [COUM-61]”: the IC50 (in test [1] (72 hours); in test [2] (72 hours); with melanoma A375 (72 hours); in test [3] (72 hours); with prostate cancer PC-3; in the test with breast cancer cell MCF-7 (72 hours)) was 0.1 to 5 µM throughout.
With `O=c1cc(-c2ccc(-c3ccc4c(c3)OCO4)s2)c2ccccc2o1` [COUM-31, 4-(5-(3,4-(methylenedioxy)benzene)thiophene-2-yl)-coumarin], the half-inhibitory concentration (IC50) is above 5 µM in test [1] (setting [4]); above 5 µM in test [2] (Homo sapiens, HepG2, 72 hours); above 5 µM in the test with melanoma A375 (Homo sapiens, A-375, 72 hours); above 5 µM in test [3] (setting [5]); above 5 µM in the test with prostate cancer PC-3 (Homo sapiens); above 5 µM in the test on breast cancer cell MCF-7 (Homo sapiens, MCF7, 72 hours).
Consider `COc1ccc2c(-c3ccc(-c4ccccc4OC)o3)cc(=O)oc2c1` [COUM-26, 4-(5-(2-methoxybenzene)furan-2-yl)-7-methoxyl-coumarin], for which the half-inhibitory concentration (IC50) in test [1] (setting [4]) was above 5 µM; in test [2] (Homo sapiens, HepG2, 72 hours) it was above 5 µM; in the test with melanoma A375 (Homo sapiens, A-375, 72 hours) it was above 5 µM; in test [3] (setting [5]), above 5 µM; in the test on prostate cancer PC-3 (Homo sapiens), above 5 µM; in the test on breast cancer cell MCF-7 (Homo sapiens, MCF7, 72 hours), above 5 µM.
For `CCN(CC)c1ccc2c(N(C)c3ccc(OC)cc3)cc(=O)oc2c1` [COUM-41, 4-(N-methyl-N-(4-methoxybenzene)-amino)-7-diethylaminocoumarin], the IC50 was 0.01 to 0.1 µM in test [1] (setting [4]); 0.01 to 0.1 µM in test [2] (Homo sapiens, HepG2, 72 hours); 0.01 to 0.1 µM in the test on melanoma A375 (Homo sapiens, A-375, 72 hours); 0.01 to 0.1 µM in test [3] (setting [5]); 0.01 to 0.1 µM with prostate cancer PC-3 (Homo sapiens); 0.01 to 0.1 µM in the test with breast cancer cell MCF-7 (Homo sapiens, MCF7, 72 hours).
Regarding `O=c1cc(-c2ccc(-c3ccccc3)o2)c2ccccc2o1` [COUM-19, 4-(5-phenylfuran-2-yl)-coumarin], the concentration for half-maximal inhibition (IC50) in test [1] (setting [4]) was above 5 µM; in test [2] (Homo sapiens, HepG2, 72 hours), above 5 µM; in the test with melanoma A375 (Homo sapiens, A-375, 72 hours), above 5 µM; in test [3] (setting [5]) it was above 5 µM; with prostate cancer PC-3 (Homo sapiens), above 5 µM; in the test on breast cancer cell MCF-7 (Homo sapiens, MCF7, 72 hours), above 5 µM.
`COc1ccc2c(c1)CCCN2c1cc(=O)oc2cc(OC)ccc12` [COUM-38, 4-(6-methoxy-3,4-dihydroquinoline-1(211)-yl)-7 methoxycoumarin]: the 50% inhibitory concentration (IC50) in test [1] (setting [4]) lay in the range of 0.1 to 5 µM; in test [2] (Homo sapiens, HepG2, 72 hours), 0.1 to 5 µM; with melanoma A375 (Homo sapiens, A-375, 72 hours) it was 0.1 to 5 µM; in test [3] (setting [5]), 0.1 to 5 µM; in the test on prostate cancer PC-3 (Homo sapiens), 0.1 to 5 µM; with breast cancer cell MCF-7 (Homo sapiens, MCF7, 72 hours), 0.1 to 5 µM.
Take `COc1ccc(N(C)c2cc(=O)oc3ccccc23)cc1NC(=O)CCC(=O)O` [COUM-98, 4-(N-methyl-N-(4-methoxy-3-(1-carboxylic acid-propanecarbonylamino-)phenyl)-amino) Coumarin]: the 50% inhibitory concentration (IC50) in test [1] (setting [4]) was 0.1 to 5 µM; in test [2] (Homo sapiens, HepG2, 72 hours) it was 0.1 to 5 µM; in the test with melanoma A375 (Homo sapiens, A-375, 72 hours), 0.1 to 5 µM; in test [3] (setting [5]), 0.1 to 5 µM; in the test with prostate cancer PC-3 (Homo sapiens) it was 0.1 to 5 µM; in the test on breast cancer cell MCF-7 (Homo sapiens, MCF7, 72 hours), 0.1 to 5 µM.
With `COc1ccc(N(C)c2cc(=O)oc3ccccc23)cc1NC(=O)C1CCCC1` [COUM-97, 4-(N-methyl-N-(4-methoxy-3-(cyclopentylcarbonylamino)phenyl)-amino) Coumarin], the half-inhibitory concentration (IC50) in test [1] (setting [4]) was 0.1 to 5 µM; in test [2] (Homo sapiens, HepG2, 72 hours), 0.1 to 5 µM; in the test with melanoma A375 (Homo sapiens, A-375, 72 hours) it was 0.1 to 5 µM; in test [3] (setting [5]), 0.1 to 5 µM; in the test with prostate cancer PC-3 (Homo sapiens) it was 0.1 to 5 µM; in the test on breast cancer cell MCF-7 (Homo sapiens, MCF7, 72 hours), 0.1 to 5 µM.
Consider `COc1ccc(N(C)c2cc(=O)oc3ccccc23)cc1OS(=O)(=O)Cc1ccc(C)cc1` [COUM-55, 4-(N-methyl-N-(4-methoxy-3-(4-methylbenzene) methanesulfonate-benzene)-amino) Coumarin], for which the concentration for half-maximal inhibition (IC50) (in test [1] (72 hours); in test [2] (72 hours); with melanoma A375 (72 hours); in test [3] (72 hours); in the test on prostate cancer PC-3; in the test on breast cancer cell MCF-7 (72 hours)) was 0.1 to 5 µM throughout.
On to `COc1cccc(-c2ccc(-c3cc(=O)oc4ccccc34)s2)c1` [COUM-29, 4-(5-(3-methoxyphenyl)thiophene-2-yl)-coumarin], for which the 50% inhibitory concentration (IC50) was above 5 µM in test [1] (setting [4]); above 5 µM in test [2] (Homo sapiens, HepG2, 72 hours); above 5 µM in the test with melanoma A375 (Homo sapiens, A-375, 72 hours); above 5 µM in test [3] (setting [5]); above 5 µM in the test on prostate cancer PC-3 (Homo sapiens); above 5 µM in the test on breast cancer cell MCF-7 (Homo sapiens, MCF7, 72 hours).
Take `CCOC(=O)COc1cc(N(C)c2cc(=O)oc3ccccc23)ccc1OC` [COUM-45, 4-(N-methyl-N-(4-methoxy-3-(2-ethoxy-2-carbonylethoxy)-benzene)-amino) coumarin]: the IC50 is 0.01 to 0.1 µM in test [1] (setting [4]); 0.01 to 0.1 µM in test [2] (Homo sapiens, HepG2, 72 hours); 0.01 to 0.1 µM with melanoma A375 (Homo sapiens, A-375, 72 hours); 0.01 to 0.1 µM in test [3] (setting [5]); 0.01 to 0.1 µM in the test on prostate cancer PC-3 (Homo sapiens); 0.01 to 0.1 µM in the test on breast cancer cell MCF-7 (Homo sapiens, MCF7, 72 hours).
Take `COc1ccc(N(C)c2cc(=O)oc3ccccc23)cc1OC(=O)CCCl` [COUM-60, 4-(N-methyl-N-(4-methoxy-3-(2-chloroethylcarbonyloxy)-benzene)-amino) Coumarin]: the IC50 (in test [1] (72 hours); in test [2] (72 hours); with melanoma A375 (72 hours); in test [3] (72 hours); in the test with prostate cancer PC-3; in the test on breast cancer cell MCF-7 (72 hours)) was 0.1 to 5 µM in each case.
Consider `COc1ccc(N(C)c2cc(=O)oc3ccccc23)cc1OCCN1CCCCC1` [COUM-51, 4-(N-methyl-N-(4-methoxy-3-(2-piperidinoethoxy)-benzene)-amino) Coumarin], for which the IC50 (in test [1] (72 hours); in test [2] (72 hours); in the test on melanoma A375 (72 hours); in test [3] (72 hours); in the test on prostate cancer PC-3; in the test with breast cancer cell MCF-7 (72 hours)) was above 5 µM throughout.
Take `COc1ccc2c(-c3ccc(-c4ccc(Cl)cc4)o3)cc(=O)oc2c1` [COUM-28, 4-(5-(4-chlorobenzene)furan-2-yl)-7-methoxyl-coumarin]: the half-inhibitory concentration (IC50) in test [1] (setting [4]) is above 5 µM; in test [2] (Homo sapiens, HepG2, 72 hours) it was above 5 µM; in the test on melanoma A375 (Homo sapiens, A-375, 72 hours), above 5 µM; in test [3] (setting [5]) it was above 5 µM; in the test with prostate cancer PC-3 (Homo sapiens), above 5 µM; in the test with breast cancer cell MCF-7 (Homo sapiens, MCF7, 72 hours) it was above 5 µM.
For “4-(N-methyl-N-(4-methoxy-3-(4-fluorobenzene) methanesulfonate-benzene)-amino) Coumarin [COUM-56]”, the IC50 (in test [1] (72 hours); in test [2] (72 hours); with melanoma A375 (72 hours); in test [3] (72 hours); in the test with prostate cancer PC-3; with breast cancer cell MCF-7 (72 hours)) was 0.1 to 5 µM throughout.
Turning to `COc1ccc(N(C)c2cc(=O)oc3ccccc23)cc1` [COUM-43, 4-(N-methyl-N-(4-methoxybenzene)-amino) coumarin], the IC50 in test [1] (setting [4]) was in the range of 0.01 to 0.1 µM; in test [2] (Homo sapiens, HepG2, 72 hours), 0.01 to 0.1 µM; with melanoma A375 (Homo sapiens, A-375, 72 hours) it was 0.01 to 0.1 µM; in test [3] (setting [5]), 0.01 to 0.1 µM; in the test with prostate cancer PC-3 (Homo sapiens), 0.01 to 0.1 µM; in the test with breast cancer cell MCF-7 (Homo sapiens, MCF7, 72 hours), 0.01 to 0.1 µM.
In the case of `COc1ccc2c(-c3ccc(-c4ccccc4OC)s3)cc(=O)oc2c1` [COUM-12, 4-(5-(2-methoxybenzene)thiophene-2-yl)-7-methoxyl-coumarin], the IC50 in test [1] (setting [4]) was above 5 µM; in test [2] (Homo sapiens, HepG2, 72 hours), above 5 µM; in the test on melanoma A375 (Homo sapiens, A-375, 72 hours) it was above 5 µM; in test [3] (setting [5]) it was above 5 µM; in the test with prostate cancer PC-3 (Homo sapiens), above 5 µM; in the test with breast cancer cell MCF-7 (Homo sapiens, MCF7, 72 hours) it was above 5 µM.
For the compound `CCOc1cc(N(C)c2cc(=O)oc3ccccc23)ccc1OC` [COUM-58, 4-(N-methyl-N-(4-methoxy-3-ethoxy-benzene)-amino) Coumarin], the 50% inhibitory concentration (IC50) (in test [1] (72 hours); in test [2] (72 hours); with melanoma A375 (72 hours); in test [3] (72 hours); in the test on prostate cancer PC-3; in the test with breast cancer cell MCF-7 (72 hours)) was above 5 µM throughout.
With `COC(=O)CCCCCCCCCCOc1cc(N(C)c2cc(=O)oc3ccccc23)ccc1OC` [COUM-94, 4-(N-methyl-N-(4-methoxy-3-(1-methyl ester-decane-oxy)phenyl)-amino) Coumarin], the IC50 in test [1] (setting [4]) was above 5 µM; in test [2] (Homo sapiens, HepG2, 72 hours) it was above 5 µM; in the test on melanoma A375 (Homo sapiens, A-375, 72 hours) it was above 5 µM; in test [3] (setting [5]), above 5 µM; in the test on prostate cancer PC-3 (Homo sapiens) it was above 5 µM; in the test with breast cancer cell MCF-7 (Homo sapiens, MCF7, 72 hours), above 5 µM.
